Patent US20230286969A1, “AROMATIC SPIRO RING AMIDE DERIVATIVES FOR THE TREATMENT AND PROPHYLAXIS OF HEPATITIS B VIRUS INFECTION” (Hoffmann-La Roche Inc., priority 2020, published 2023)
Where two headings read alike, the source gives them in different places.

Experiments:
Format in all cases: cell-based
[1] = PHH natural infection assay, cytotoxicity (Cell Counting Kit-8); conditions: human, HBV-infected primary human hepatocytes, CCK8, end of treatment
Procedure: (§1) Detailed procedures regarding primary human hepatocyte (PHH) HBV natural infection assay are described as below. One tube of frozen PHH (10 million cells) is thawed in 37° C. water bath and then transferred to 20 mL of PHH thawing medium (Sigma, InVitroGRO HT Medium, Cat. S03319) with gently mixing. The cells were then centrifuged at […] for 5 min, the supernatant was discarded and the tube was refilled with 25 mL of PHH plating medium (Sigma, InVitroGRO CP Medium, Cat. S03317). The tube was shaken very gently to re-suspend all cells, and then 50 μl of cells were transferred to each well 384-well collagen I coated plate with appropriate liquid handling equipment, e.g. Integra VIAFLO384 or Agilent Bravo. The cells were then cultured for 24 hours in a cell incubator. For HBV infection, after PHH attachment on the culture plate, the plating medium was removed and replenished with PHH culture medium containing HBV virus. The PHH culture medium was prepared with Dulbecco's Modified Eagle Medium (DMEM)/F12 (1:1 in volume ratio) containing 10% fetal bovine serum (Gibco, Cat. 10099141), 5 ng/mL human epidermal growth factor (Gibco, Cat.PHG0311L), 20 ng/mL dexamethasone (Sigma, Cat.D4902-100 mg), 250 ng/mL human recombinant insulin (Gibco, Cat.41400045) and 100 U/mL penicillin. HBV virus at 200 genome equivalent (GE) per cell with 4% PEG8000 (Sigma, Cat.P1458) containing culture medium were added to the PHH culture medium for infection. The cells were then cultured for 24 hours in cell incubator. Then the cell culture supernatant was removed. The HBV-infected PHH were cultured with sandwich culture method with PHH culture medium containing 1% DMSO and 0.25 mg/mL matrix gel for 72 hours. The supernatant was then refreshed with PHH culture medium containing different concentrations of testing compounds for two times with 72-hour interval. At the end of treatment, the supernatant was collected for viral markers measurements, including HBsAg, HBeAg, HBV DNA and cytotoxicity. HBsAg and HBeAg were detected using alphalisa method using their specific antibodies. For HBV DNA detection, HBV DNA Quantitative Fluorescence Diagnostic Kit (Sansure Biotech Inc.) was used following the manufacture's protocol. Cytotoxicity was determined using Cell Counting Kit-8 (CCK8, Dojindo Molecular Technologies, Inc.).

HBsAg = experiment: PHH HBV natural infection assay, HBsAg (alphalisa)
Procedure: as §1
(§2) The compounds of the present invention were tested for their capacity to inhibit HBsAg and HBeAg as described herein.

HBeAg = experiment: PHH HBV natural infection assay, HBeAg (alphalisa)
Procedure: as §1, §2

[2] = Hepatitis B virus, Hepatocyte, 72 h, read-out: HBsAg IC50, HBV-infected primary human hepatocytes, supernatant, compound medium refreshed two times with 72-hour interval
[3] = Hepatitis B virus, Hepatocyte, 72 h, read-out: HbeAg IC50, HBV-infected primary human hepatocytes, supernatant, compound medium refreshed two times with 72-hour interval
[4] = read-out: HBsAg IC50, HBV-infected primary human hepatocytes, supernatant, compound medium refreshed two times with 72-hour interval
[5] = read-out: HbeAg IC50, HBV-infected primary human hepatocytes, supernatant, compound medium refreshed two times with 72-hour interval

SMILES | CC50 at 144 h [1] [nM] | IC50 (HBsAg; [2]) [nM] | IC50 (HBeAg; [3]) [nM] | IC50 (HBsAg; [4]) [nM] | IC50 (HBeAg; [5]) [nM]
CN(C)S(=O)(=O)c1ccc(C(=O)NC2CC3(C2)CC(c2nc4cc(Cl)ccc4o2)C3)o1 (stereo not drawn) [Example 89, N-[6-(5-chloro-1,3-benzoxazol-2-yl)spiro[3.3]heptan-2-yl]-5-(dimethylsulfamoyl)furan-2-carboxamide] | > 10000 | 1040 | 723 | – | –
O=C(N[C@H]1CC2(C1)C[C@H](c1nc3cc(Cl)ccc3o1)C2)c1ccc(S(=O)(=O)NC(=O)C2CCC2)o1 (single isomer, unassigned) [Example 72, (Sa)—N-[6-(5-chloro-1,3-benzoxazol-2-yl)spiro[3.3]heptan-2-yl]-5-(cyclobutanecarbonylsulfamoyl)furan-2-carboxamide, or (Ra)—N-[6-(5-chloro-1,3-benzoxazol-2-yl)spiro[3.3]heptan-2-yl]-5-(cyclobutanecarbonylsulfamoyl)furan-2-carboxamide] | > 100000 | 314 | 386 | – | –
O=C(NC1CC2(C1)CC(c1nc3cc(Cl)cnc3o1)C2)c1ccc(S(=O)(=O)C2CC2)o1 (stereo not drawn) [Example 49, N-[6-(6-chlorooxazolo[5,4-b]pyridin-2-yl)spiro[3.3]heptan-2-yl]-5-cyclopropylsulfonyl-furan-2-carboxamide] | 84500 | 2400 | 1740 | – | –
Cn1cc(C(=O)NC2CC3(C2)CC(c2nc4cc(Cl)ccc4o2)C3)cn1 (stereo not drawn) [Example 13, N-[6-(5-chloro-1,3-benzoxazol-2-yl)spiro[3.3]heptan-2-yl]-1-methyl-pyrazole-4-carboxamide] | > 100000 | 9820 | 6200 | – | –
O=C(NC1CC2(C1)CC(c1nc3cc(Cl)ccc3o1)C2)c1ccc(S(=O)(=O)CC2COC2)o1 (stereo not drawn) [Example 24, N-[6-(5-chloro-1,3-benzoxazol-2-yl)spiro[3.3]heptan-2-yl]-5-(oxetan-3-ylmethylsulfonyl)furan-2-carboxamide] | 95300 | 2440 | 2330 | – | –
O=C(NC1CC2(C1)CC(c1nc3ccc(F)cc3o1)C2)c1ccc(C(F)(F)F)o1 (stereo not drawn) [Example 47, N-[6-(6-fluoro-1,3-benzoxazol-2-yl)spiro[3.3]heptan-2-yl]-5-(trifluoromethyl)furan-2-carboxamide] | > 100000 | 9590 | 10600 | – | –
CCS(=O)(=O)c1oc(C(=O)NC2CC3(C2)CC(c2nc4cc(Cl)ccc4o2)C3)cc1Br (stereo not drawn) [Example 36, 4-bromo-N-[6-(5-chloro-1,3-benzoxazol-2-yl)spiro[3.3]heptan-2-yl]-5-ethylsulfonyl-furan-2-carboxamide] | > 100000 | 885 | 815 | – | –
O=C(NC1CC2(C1)CC(c1nc3cc(Cl)ccc3o1)C2)c1ccc(S(=O)(=O)C2CC2)o1 (stereo not drawn) [Example 17, N-[6-(5-chloro-1,3-benzoxazol-2-yl)spiro[3.3]heptan-2-yl]-5-cyclopropylsulfonyl-furan-2-carboxamide] | 89900 | 275 | 177 | – | –
[H][C@]1(NC(=O)c2ccc([S@](=N)(=O)C3CC3)o2)C[C@]2(C1)C[C@]([H])(c1nc3cc(Cl)ccc3o1)C2 (stereo partly drawn) [Example 53-c, (Ra)—N-[6-(5-chloro-1,3-benzoxazol-2-yl)spiro[3.3]heptan-2-yl]-5-[(R)-cyclopropylsulfonimidoyl]furan-2-carboxamide] | 91900 | 650 | 621 | – | –
N=S(=O)(Cc1ccc(C(=O)NC2CC3(C2)CC(c2nc4cc(Cl)ccc4o2)C3)o1)C1CC1 (stereo not drawn) [Example 60, N-[6-(5-chloro-1,3-benzoxazol-2-yl)spiro[3.3]heptan-2-yl]-5-[(cyclopropylsulfonimidoyl)methyl]furan-2-carboxamide] | > 100000 | 1960 | 1910 | – | –
CC(C)S(=O)(=O)Cc1ccc(C(=O)NC2CC3(C2)CC(c2nc4cc(Cl)ccc4o2)C3)o1 (stereo not drawn) [Example 44, N-[6-(5-chloro-1,3-benzoxazol-2-yl)spiro[3.3]heptan-2-yl]-5-(isopropylsulfonylmethyl)furan-2-carboxamide] | 95800 | 1800 | 1550 | – | –
O=C(NC1CC2(C1)CC(c1nc3cc(Cl)ccc3o1)C2)c1ccc([S+]([O-])CC2CC2)o1 (single isomer, unassigned) [Example 19-a, N-[6-(5-chloro-1,3-benzoxazol-2-yl)spiro[3.3]heptan-2-yl]-5-(cyclopropylmethylsulfinyl)furan-2-carboxamide] | > 10000 | – | – | 88 | 67
O=C(NC1CC2(C1)CC(c1nc3cc(Cl)ccc3o1)C2)c1ccc([S+]([O-])C2CC2)o1 (stereo not drawn) [Example 40, N-[6-(5-chloro-1,3-benzoxazol-2-yl)spiro[3.3]heptan-2-yl]-5-cyclopropylsulfinyl-furan-2-carboxamide] | > 10000 | 84 | 67 | – | –
NS(=O)(=O)c1ccc(C(=O)NC2CC3(C2)CC(c2nc4cc(Cl)ccc4o2)C3)o1 (stereo not drawn) [Example 29, N-[6-(5-chloro-1,3-benzoxazol-2-yl)spiro[3.3]heptan-2-yl]-5-sulfamoyl-furan-2-carboxamide] | 94200 | 534 | 509 | – | –
N=S(=O)(CC1CC(F)(F)C1)c1ccc(C(=O)NC2CC3(C2)CC(c2nc4cc(Cl)ccc4o2)C3)o1 (stereo not drawn) [Example 57, N-[6-(5-chloro-1,3-benzoxazol-2-yl)spiro[3.3]heptan-2-yl]-5-[(3,3-difluorocyclobutyl)methylsulfonimidoyl]furan-2-carboxamide] | 81900 | 884 | 754 | – | –
[H][C@]1(NC(=O)c2ccc(S(C)(=O)=O)o2)C[C@]2(C1)C[C@]([H])(c1nc3cc(Cl)ccc3o1)C2 (single isomer, unassigned) [Example 15-b, (Ra)—N-[6-(5-chloro-1,3-benzoxazol-2-yl)spiro[3.3]heptan-2-yl]-5-methylsulfonyl-furan-2-carboxamide] | 35800 | – | – | 896 | 694
O=C(NC1CC2(C1)CC(c1nc3cc(Cl)cnc3o1)C2)c1ccc([S+]([O-])C2CC2)o1 (stereo not drawn) [Example 50, N-[6-(6-chlorooxazolo[5,4-b]pyridin-2-yl)spiro[3.3]heptan-2-yl]-5-cyclopropylsulfinyl-furan-2-carboxamide] | > 100000 | 540 | 350 | – | –
O=C(NC1CC2(C1)CC(c1nc3cc(Cl)ccc3o1)C2)c1ccc(CS(=O)(=O)C2CC2)o1 (stereo not drawn) [Example 31, N-[6-(5-chloro-1,3-benzoxazol-2-yl)spiro[3.3]heptan-2-yl]-5-(cyclopropylsulfonylmethyl)furan-2-carboxamide] | > 100000 | 7560 | 6980 | – | –
N=S(=O)(c1ccc(C(=O)NC2CC3(C2)CC(c2nc4cnc(Cl)cc4o2)C3)o1)C1CC1 (stereo not drawn) [Example 65, N-[6-(6-chlorooxazolo[4,5-c]pyridin-2-yl)spiro[3.3]heptan-2-yl]-5-(cyclopropylsulfonimidoyl)furan-2-carboxamide] | > 100000 | 6380 | 5830 | – | –
O=C(NC1CC2(C1)CC(c1nc3cc(Cl)ccc3o1)C2)c1ccc(Br)o1 (stereo not drawn) [Example 3, 5-bromo-N-[6-(5-chloro-1,3-benzoxazol-2-yl)spiro[3.3]heptan-2-yl]furan-2-carboxamide] | 96200 | 9790 | 7640 | – | –
CS(=N)(=O)c1ccc(C(=O)NC2CC3(C2)CC(c2nc4cc(Cl)ccc4o2)C3)o1 (stereo not drawn) [Example 52, N-[6-(5-chloro-1,3-benzoxazol-2-yl)spiro[3.3]heptan-2-yl]-5-(methylsulfonimidoyl)furan-2-carboxamide] | 72000 | 1700 | 1200 | – | –
N=S(=O)(c1ccc(C(=O)NC2CC3(C2)CC(c2nc4cc(Cl)cnc4o2)C3)o1)C1CC1 (single isomer, unassigned) [Example 64-a, N-[6-(6-chlorooxazolo[5,4-b]pyridin-2-yl)spiro[3.3]heptan-2-yl]-5-(cyclopropylsulfonimidoyl)furan-2-carboxamide] | > 10000 | – | – | 8450 | 4810
